Assay results taken from ChEMBL document CHEMBL3832761, “MMV Pathogen Box Bioactivity Data” (2017).

How the values were obtained:
HepG2 [1] = experiment: Cytotoxicity data HepG2 CC20 (uM); assay type: functional
Trypanosoma cruzi = experiment: AntiTrypanosoma cruzi activity IC50 (uM); assay type: functional, organism-based
MRC5 = experiment: MRC5 CC50 (uM) Cytotoxicity; assay type: functional; details: Homo sapiens
Leishmania infantum = experiment: AntiLeishmania activity L. infantum (macrophages) IC50 (uM); assay type: functional, organism-based
Trypanosoma brucei [2] = experiment: AntiTrypanosoma brucei activity T. b. rhodesiense IC50 (uM); assay type: functional, organism-based
Trypanosoma brucei [3] = experiment: AntiTrypanosoma brucei activity T. b. brucei IC50 (uM); assay type: functional, organism-based
[4] = PMM CC50 (uM) Cytotoxicity; assay type: functional; details: Macrophage
Plasmodium falciparum [5] = experiment: Antimalarial activity: Asexual Blood Stage Plasmodium falciparum W2 IC50 (uM); assay type: functional, organism-based
Plasmodium berghei = experiment: Antimalarial activity: Liver Stage Plasmodium berghei sporozoite Luciferase assay: inhibition at 10 uM (%); assay type: functional
Plasmodium falciparum [6] = experiment: Antimalarial activity: Asexual Blood Stage Plasmodium falciparum 3D7 IC50 (uM); assay type: functional, organism-based
Plasmodium falciparum [7] = experiment: Antimalarial activity: Gametocytes Plasmodium falciparum NF54 Gametocytes Stage V: inhibition at 10 uM (%); assay type: functional
HepG2 [8] = experiment: HepG2 inhibition at 10 uM (%) Cytotoxicity; assay type: functional; details: Homo sapiens
Plasmodium falciparum [9] = experiment: Antimalarial activity: Asexual Blood Stage Plasmodium falciparum Dd2 IC50 (uM); assay type: functional, organism-based

Row | SMILES | CC20 (HepG2 [1]) [µM] | IC50 (Trypanosoma cruzi) [nM] | CC50 (MRC5) [µM] | IC50 (Leishmania infantum) [µM] | IC50 (Trypanosoma brucei [2]) [nM] | IC50 (Trypanosoma brucei [3]) [nM] | CC50 [4] [µM] | IC50 (Plasmodium falciparum [5]) [nM] | Inhibition (Plasmodium berghei) [%] | IC50 (Plasmodium falciparum [6]) [nM] | Inhibition (Plasmodium falciparum [7]) [%] | inhibition at 10 µM (HepG2 [8]) [%] | IC50 (Plasmodium falciparum [9]) [nM]
1 | CC1=Nc2ccc(Cl)cc2C(c2ccccc2)N1CCNC(=O)CN(C)C (configuration not stated) | 16.4 | 17100 | 16 | 10.1 | 3110 | 3780 | > 32 |  |  |  |  |  | 
2 | O=C(NCCc1ccn(-c2ccccc2)n1)C1CCCCC1 |  | 730 | > 64 | > 64 | < 130 | 150 | > 64 |  |  |  |  |  | 
3 | COc1cc(C2=NCCN2)ccc1-c1cn(-c2cccc(C3=NCCN3)c2)nn1 | 22.9 | 25000 | > 32 | > 32 | 3720 | > 32000 | > 32 |  |  |  |  |  | 
4 | CO[C@@H]1CN(c2ccc(C#CC3(O)CN4CCC3CC4)c(Cc3ccccc3)n2)C[C@H]1O (some centres not stated) | 38.4 | < 130 | > 32 | 17.3 | 4000 | 16100 | > 32 |  |  |  |  |  | 
5 | NCCN(C(=O)c1ccc(Cl)cc1Cl)c1ccc(OCc2ccc(Cl)cc2)cc1 |  | 620 | 4 | 0.63 | < 130 | < 130 | 1 |  |  |  |  |  | 
6 | CNCCC(Oc1ccc(C(F)(F)F)cc1)c1ccccc1 (configuration not stated) [FLUOXETINE] | 8.97 |  | 11.4 |  |  |  | 16 |  |  |  |  |  | 
7 | CCN(CC)S(=O)(=O)c1ccc(C(=O)Nc2cc(C)nn2-c2nc(C)c(C)c(=O)[nH]2)cc1 |  | 1960 | 6.6 | 6.87 | 1700 | 5300 | > 64 |  |  |  |  |  | 
8 | CN1CCCN(C(c2ccccc2)c2ccc(Cl)cc2)CC1 (configuration not stated) [HOMOCHLORCYCLIZINE] |  | 9440 | 31.8 | 36.3 | 1940 | 4640 | 48 |  |  |  |  |  | 
9 | Clc1ccc(CN2CCN(C3=NCCN3)CC2)cc1Cl |  | 6570 | > 64 | > 64 | 30100 | 31600 | > 64 |  |  |  |  |  | 
10 | Cc1ccc(S(=O)(=O)Nc2ccc(CN3CCN(C(=O)c4cccc(C#N)c4)CC3)cc2)cc1 |  | 1200 | > 64 | 32 | 120 | 140 | > 64 |  |  |  |  |  | 
11 | Cc1noc(C)c1C(=O)N1CCCC(c2[nH]c3c(C)cccc3c2-c2ccncc2)C1 (configuration not stated) | >80 |  |  |  |  |  |  | 620 | 52 | 940 | 42 | 0 | 740
12 | CC1CCCCN1C(=O)NCCc1coc(-c2ccc(F)cc2)n1 (configuration not stated) |  | 480 | > 64 | > 64 | 110 | 130 | > 64 |  |  |  |  |  | 
13 | CCC(=O)Nc1ccccc1C(=O)Nc1ccccn1 |  | > 64000 | > 64 | > 64 | 1310 | 2460 | > 64 |  |  |  |  |  | 
14 | CCOC(=O)c1noc(N)c1-c1ccccc1 |  | > 64000 | > 64 | > 64 | 460 | 1220 | > 64 |  |  |  |  |  | 
15 | O=C(NCc1nnc2n1CCCCC2)c1ccc(-c2ccc(F)cc2)o1 |  | 2070 | > 64 | > 64 | 130 | 100 | > 64 |  |  |  |  |  | 
16 | CC(C(=O)N1CCCC1)N1CCN(S(=O)(=O)c2ccc(C(C)(C)C)cc2)CC1 (configuration not stated) | >80 |  |  |  |  |  |  | 2170 | 18 | 900 | 1 | 0 | 1330
17 | O=C([C@@H](c1ccc(Cl)cc1)c1cccnc1)N1CCN(c2ccc(C(F)(F)F)cc2)CC1 | 19 | 10 |  |  |  |  |  |  |  |  |  |  | 
18 | COc1ccc(Cl)cc1NC(=O)CN(C)C(=O)c1cnn(-c2ccccc2)n1 | 72.2 |  |  |  |  |  |  | 290 | 48 | 240 | 60 | 6 | 240
19 | CC(C)C(C(=O)Nc1ccc(S(=O)(=O)N(C)C)cc1)c1ccc(Cl)cc1 (configuration not stated) | 5.35 |  |  |  |  |  |  | 790 | 66 | 930 | 31 | 17 | 640
20 | COc1ccc(C2=NN(C3CCCCCC3)C(=O)[C@@H]3CC=CC[C@H]23)cc1OCCCCOc1ccc(-c2nnn[nH]2)cc1 |  |  |  |  |  | 20 |  |  |  |  |  |  | 
21 | Cc1cc(Nc2ccncc2)n2nc(C)c(-c3ccccc3Cl)c2n1 | 80 |  |  |  |  |  |  | 490 | 35 | 630 | 46 | 3 | 690
22 | CO/C=C(/C(=O)OC)c1ccccc1Oc1cc(Oc2ccccc2C#N)ncn1 [AZOXYSTROBIN] |  |  | > 28 |  |  |  |  | 30 | 97 | 50 | 32.5 | 37 | 90

Row | SMILES | CC20 (HepG2 [1]) [µM] | IC50 (Trypanosoma cruzi) [nM] | CC50 (MRC5) [µM] | IC50 (Leishmania infantum) [µM] | IC50 (Trypanosoma brucei [2]) [nM] | IC50 (Trypanosoma brucei [3]) [nM] | CC50 [4] [µM] | IC50 (Plasmodium falciparum [5]) [nM] | Inhibition (Plasmodium berghei) [%] | IC50 (Plasmodium falciparum [6]) [nM] | Inhibition (Plasmodium falciparum [7]) [%] | inhibition at 10 µM (HepG2 [8]) [%] | IC50 (Plasmodium falciparum [9]) [nM]
23 | COc1ccc(S(=O)(=O)Nc2ccc(CN3CCN(C(=O)c4cccc(C#N)c4)CC3)cc2)cc1 |  | 2700 | > 64 | 52.2 | 400 | 500 | > 64 |  |  |  |  |  | 
24 | O=S(=O)(c1ccc(Cl)cc1)N1CCN(C(=S)NCc2ccco2)CC1 | 28.3 |  |  |  |  |  |  | 1250 | 23 | 1200 | 32 | 0 | 760
25 | Cc1noc(C)c1COc1cccc(C(=O)N=c2[nH]cccc2C)c1 |  | > 64000 | > 64 | > 64 | 650 | 2070 | > 64 |  |  |  |  |  | 
26 | COc1ccc(Oc2ccc([C@@H](C)N(C)c3ncc4c(N)nc(N)nc4n3)cc2)cc1 |  |  | 5.4 | 0.03 |  |  | 4 |  |  |  |  |  | 
27 | Cc1nn2c(=O)c3c([nH]c2c1-c1ccc(Cl)cc1)CCCC3 |  | 710 | > 64 | 44 | 140 | 490 | 48 |  |  |  |  |  | 
28 | CNC(=O)C1Cc2ccccc2N1C(=O)Cc1ccc(F)cc1 (configuration not stated) |  | > 64000 | > 64 | > 64 | 380 | 490 | > 64 |  |  |  |  |  | 
29 | CNc1cc(C)nc(C2CN(C(=O)c3n[nH]c4ccccc34)CCO2)c1 (configuration not stated) |  | 3890 | > 64 |  |  |  |  |  |  |  |  |  | 
30 | CC(c1cc(Cl)cc(Cl)c1)N(C)c1ncc2c(N)nc(N)nc2n1 (configuration not stated) |  |  | 5.9 | 0.54 |  |  | > 32 |  |  |  |  |  | 
31 | Cc1nn2c(O)c3c(nc2c1-c1ccc(F)cc1)CCCC3 |  | 2210 | > 64 | 50.4 | 480 | 1940 | > 64 |  |  |  |  |  | 
32 | C[C@H](c1ccc2c(c1)CCCC2)N(C)c1ncc2c(N)nc(N)nc2n1 |  |  | 7.1 | 0.47 |  |  | 8 |  |  |  |  |  | 
33 | CC(C)NCC(=O)Nc1cccc(C(=O)Nc2cccc(C(F)(F)F)c2)c1 | 11.5 |  |  |  |  |  |  | 2250 | 47 | 350 | 40 | 0 | 4100
34 | Cc1cc2ccccc2n1CC(=O)N1CC(C(=O)N2CCCCC2)Oc2ccccc21 (configuration not stated) | 21.8 |  |  |  |  |  |  | 1050 | 1 | 1080 | 30 | 10 | 770
35 | COc1ccc(C2=NN(C3CCCCCC3)C(=O)C2(C)C)cc1OCCCCOc1ccc(-c2nn[nH]n2)cc1 |  |  |  |  |  | 790 |  |  |  |  |  |  | 
36 | O=C(Nc1ccc(F)c(-c2nc3cc(-c4ccccc4)cnc3[nH]2)c1)N1CCCC1 |  | < 130 | 0.4 | 0.16 | < 130 | < 130 | 16 |  |  |  |  |  | 
37 | O=C(c1ccc(NCCO)cc1)C1C[C@H]1c1ccc(Cl)cc1 (some centres not stated) | 12.8 |  |  |  |  |  |  | 2260 | 44 | 660 | 20 | 5 | 1630
38 | COc1ccccc1C(C)NCC(=O)Nc1cc(C(F)(F)F)ccc1Cl (configuration not stated) | 33.7 |  |  |  |  |  |  | 1400 | 55 | 1380 | 1 | 13 | 2820
39 | COc1ccccc1CNC(=O)c1cc(C2CC2)nc2c1cnn2C(C)C | 11.3 |  |  |  |  |  |  | 2030 | 39 | 940 | 36 | 5 | 1500
40 | CNC(=O)c1cc(S(=O)(=O)N2CCN(c3ccccn3)CC2)cs1 | >80 |  |  |  |  |  |  | 970 | 9 | 1110 | 34 | 6 | 850
41 | CS(=O)(=O)c1ccccc1C(=O)N(Cc1ccccc1)c1ccccc1 |  | 35400 | > 64 | > 64 | 400 | 560 | > 64 |  |  |  |  |  | 
42 | CC(=O)Nc1ccc(-c2noc(CC3CCCN(Cc4cccc(F)c4C)C3)n2)cc1 (configuration not stated) |  | 2800 | 29.4 | 1.59 | 25100 | 32300 | > 64 |  |  |  |  |  | 
43 | FC(F)(F)c1ccc(N(c2cccnc2)C2CCN(c3ccc(C(F)(F)F)cn3)CC2)cc1 | 25.8 | 10 |  |  |  |  |  |  |  |  |  |  | 
44 | COc1ccc(C2CC(c3cccs3)=NN2C(=O)c2ccco2)cc1OC (configuration not stated) | 43.1 |  |  |  |  |  |  | 850 | 26 | 300 | 1 | 15 | 980
